Test results as given in patent US8936916B2, “Polypeptides for microbial detection” (3M Innovative Properties Company, priority 2008, dated 2015).
Ends that are not written are not given here. * marks the point of attachment. Myristoyl = CCCCCCCCCCCCCC(=O)*

Assay: Permeabilization of DPPC liposomes containing glucose oxidase by phosphorylated dermatoxin (absorbance at 538 nm)
Format: biochemical
Procedure: DPPC liposomes containing 5 mg/mL glucose oxidase were prepared as described in Example 2. Glucose oxidase activity was measured in a coupled enzyme reaction with horseradish peroxidase as described in Example 2. The various solutions were quickly added to each of the wells of a microplate using a multichannel pipette and the reactions were started (at T=0 hours) with the addition to the wells of a solution containing glucose and 4-AAP.
The ability of the phosphorylated dermatoxin to open liposomes in the presence of phosphatase was tested by preparing a developing solution as described in Example 2. One hundred-fifty microliters of the developing solution was placed in each well of a 96-well microplate. To each column in the plate was added 20 μL of TES buffer containing one of the following concentrations of unpurified dermatoxin: 3.3 mg/mL, 3.3×10^−1 mg/mL, 3.3×10^−2 mg/mL, 3.3×10^−3 mg/mL, 3.3×10^−4 mg/mL, 3.3×10^−5 mg/mL, 3.3×10^−6 mg/mL, or 3.3×10^−7 mg/mL. Negative control wells contained TES buffer with no dermatoxin. Positive control wells buffer contained TES buffer with Triton X-100. Ten-microliter aliquots of the following concentrations of DPPC liposomes (containing 5 mg/mL glucose oxidase) were added to wells in duplicate rows: 0.1 mg lipid/mL, 0.02 mg lipid/mL, 0.004 mg lipid/mL, or plain buffer. To one of the duplicate rows was added 20 μL of 2.5 mg/mL alkaline phosphatase in TES. The other duplicate row received 20 μL of TES buffer. Thus the final dermatoxin concentration in the well varied from […], and the final lipid concentration in the well ranged from 0.005 mg lipid/mL to 2.0×10^−4 mg lipid/mL.
The absorbance was recorded at 538 nm on a SpectraMax M5 plate reader (Molecular Devices, Sunnyvale, Calif.) after two hours incubation at room temperature, and also after overnight incubation (approximately 18 hours). Since the absorbance of several wells was saturated, the overnight samples were diluted 1:10 with 50 mmol TES and the absorbance of the diluted samples was measured.

## SLGSFLKGVGTTLASVGKVVSDQFGKLLQAGQ (Myristoyl-SLGSFLKGVGTTLASVGKVVSDQFGKLLQAGQ; also: phosphorylated) [phosphorylated dermatoxin, fully phosphorylated dermatoxin, unpurified crude preparation]
18 hrs (d), 1:10-diluted sample, lipid conc. 0.004, dermatoxin mass 3.3 × 10^−9 mg, without phosphatase
  Absorbance at 538 nm (cytolytic peptide activity): 0.054 absorbance units
18 hrs (d), 1:10-diluted sample, lipid conc. 0.02, dermatoxin mass 3.3 × 10^−5 mg, with phosphatase
  Absorbance at 538 nm (cytolytic peptide activity): 0.262 absorbance units
18 hrs (d), 1:10-diluted sample, lipid conc. 0.02, dermatoxin mass 3.3 × 10^−5 mg, without phosphatase
  Absorbance at 538 nm (cytolytic peptide activity): 0.247 absorbance units
18 hrs (d), 1:10-diluted sample, lipid conc. 0.02, dermatoxin mass 3.3 × 10^−6 mg, with phosphatase
  Absorbance at 538 nm (cytolytic peptide activity): 0.231 absorbance units
18 hrs (d), 1:10-diluted sample, lipid conc. 0.02, dermatoxin mass 3.3 × 10^−6 mg, without phosphatase
  Absorbance at 538 nm (cytolytic peptide activity): 0.145 absorbance units
18 hrs (d), 1:10-diluted sample, lipid conc. 0.02, dermatoxin mass 3.3 × 10^−7 mg, with phosphatase
  Absorbance at 538 nm (cytolytic peptide activity): 0.084 absorbance units
18 hrs (d), 1:10-diluted sample, lipid conc. 0.02, dermatoxin mass 3.3 × 10^−7 mg, without phosphatase
  Absorbance at 538 nm (cytolytic peptide activity): 0.072 absorbance units
18 hrs (d), 1:10-diluted sample, lipid conc. 0.02, dermatoxin mass 3.3 × 10^−8 mg, with phosphatase
  Absorbance at 538 nm (cytolytic peptide activity): 0.075 absorbance units
18 hrs (d), 1:10-diluted sample, lipid conc. 0.02, dermatoxin mass 3.3 × 10^−8 mg, without phosphatase
  Absorbance at 538 nm (cytolytic peptide activity): 0.054 absorbance units
18 hrs (d), 1:10-diluted sample, lipid conc. 0.02, dermatoxin mass 3.3 × 10^−9 mg, with phosphatase
  Absorbance at 538 nm (cytolytic peptide activity): 0.072 absorbance units
18 hrs (d), 1:10-diluted sample, lipid conc. 0.02, dermatoxin mass 3.3 × 10^−9 mg, without phosphatase
  Absorbance at 538 nm (cytolytic peptide activity): 0.054 absorbance units
18 hrs (d), 1:10-diluted sample, lipid conc. 0.1, dermatoxin mass 3.3 × 10^−5 mg, with phosphatase
  Absorbance at 538 nm (cytolytic peptide activity): 1.045 absorbance units
18 hrs (d), 1:10-diluted sample, lipid conc. 0.1, dermatoxin mass 3.3 × 10^−5 mg, without phosphatase
  Absorbance at 538 nm (cytolytic peptide activity): 0.846 absorbance units
18 hrs (d), 1:10-diluted sample, lipid conc. 0.1, dermatoxin mass 3.3 × 10^−6 mg, with phosphatase
  Absorbance at 538 nm (cytolytic peptide activity): 0.785 absorbance units
18 hrs (d), 1:10-diluted sample, lipid conc. 0.1, dermatoxin mass 3.3 × 10^−6 mg, without phosphatase
  Absorbance at 538 nm (cytolytic peptide activity): 0.413 absorbance units
18 hrs (d), 1:10-diluted sample, lipid conc. 0.1, dermatoxin mass 3.3 × 10^−7 mg, with phosphatase
  Absorbance at 538 nm (cytolytic peptide activity): 0.095 absorbance units
18 hrs (d), 1:10-diluted sample, lipid conc. 0.1, dermatoxin mass 3.3 × 10^−7 mg, without phosphatase
  Absorbance at 538 nm (cytolytic peptide activity): 0.145 absorbance units
18 hrs (d), 1:10-diluted sample, lipid conc. 0.1, dermatoxin mass 3.3 × 10^−8 mg, with phosphatase
  Absorbance at 538 nm (cytolytic peptide activity): 0.076 absorbance units
18 hrs (d), 1:10-diluted sample, lipid conc. 0.1, dermatoxin mass 3.3 × 10^−8 mg, without phosphatase
  Absorbance at 538 nm (cytolytic peptide activity): 0.060 absorbance units
18 hrs (d), 1:10-diluted sample, lipid conc. 0.1, dermatoxin mass 3.3 × 10^−9 mg, with phosphatase
  Absorbance at 538 nm (cytolytic peptide activity): 0.075 absorbance units
18 hrs (d), 1:10-diluted sample, lipid conc. 0.1, dermatoxin mass 3.3 × 10^−9 mg, without phosphatase
  Absorbance at 538 nm (cytolytic peptide activity): 0.058 absorbance units
18 hrs, lipid conc. 0, dermatoxin mass 3.3 × 10^−5 mg, with phosphatase
  Absorbance at 538 nm (cytolytic peptide activity): 0.153 absorbance units
18 hrs, lipid conc. 0, dermatoxin mass 3.3 × 10^−5 mg, without phosphatase
  Absorbance at 538 nm (cytolytic peptide activity): 0.147 absorbance units
18 hrs, lipid conc. 0, dermatoxin mass 3.3 × 10^−6 mg, with phosphatase
  Absorbance at 538 nm (cytolytic peptide activity): 0.149 absorbance units
18 hrs, lipid conc. 0, dermatoxin mass 3.3 × 10^−6 mg, without phosphatase
  Absorbance at 538 nm (cytolytic peptide activity): 0.139 absorbance units
18 hrs, lipid conc. 0, dermatoxin mass 3.3 × 10^−7 mg, with phosphatase
  Absorbance at 538 nm (cytolytic peptide activity): 0.148 absorbance units
18 hrs, lipid conc. 0, dermatoxin mass 3.3 × 10^−7 mg, without phosphatase
  Absorbance at 538 nm (cytolytic peptide activity): 0.132 absorbance units
18 hrs, lipid conc. 0, dermatoxin mass 3.3 × 10^−8 mg, with phosphatase
  Absorbance at 538 nm (cytolytic peptide activity): 0.149 absorbance units
18 hrs, lipid conc. 0, dermatoxin mass 3.3 × 10^−8 mg, without phosphatase
  Absorbance at 538 nm (cytolytic peptide activity): 0.131 absorbance units
18 hrs, lipid conc. 0, dermatoxin mass 3.3 × 10^−9 mg, with phosphatase
  Absorbance at 538 nm (cytolytic peptide activity): 0.150 absorbance units
18 hrs, lipid conc. 0, dermatoxin mass 3.3 × 10^−9 mg, without phosphatase
  Absorbance at 538 nm (cytolytic peptide activity): 0.133 absorbance units
18 hrs, lipid conc. 0.004, dermatoxin mass 3.3 × 10^−5 mg, with phosphatase
  Absorbance at 538 nm (cytolytic peptide activity): 0.494 absorbance units
18 hrs, lipid conc. 0.004, dermatoxin mass 3.3 × 10^−5 mg, without phosphatase
  Absorbance at 538 nm (cytolytic peptide activity): 0.499 absorbance units
18 hrs, lipid conc. 0.004, dermatoxin mass 3.3 × 10^−6 mg, with phosphatase
  Absorbance at 538 nm (cytolytic peptide activity): 0.494 absorbance units
18 hrs, lipid conc. 0.004, dermatoxin mass 3.3 × 10^−6 mg, without phosphatase
  Absorbance at 538 nm (cytolytic peptide activity): 0.410 absorbance units
18 hrs, lipid conc. 0.004, dermatoxin mass 3.3 × 10^−7 mg, with phosphatase
  Absorbance at 538 nm (cytolytic peptide activity): 0.287 absorbance units
18 hrs, lipid conc. 0.004, dermatoxin mass 3.3 × 10^−7 mg, without phosphatase
  Absorbance at 538 nm (cytolytic peptide activity): 0.169 absorbance units
18 hrs, lipid conc. 0.004, dermatoxin mass 3.3 × 10^−8 mg, with phosphatase
  Absorbance at 538 nm (cytolytic peptide activity): 0.240 absorbance units
18 hrs, lipid conc. 0.004, dermatoxin mass 3.3 × 10^−8 mg, without phosphatase
  Absorbance at 538 nm (cytolytic peptide activity): 0.141 absorbance units
18 hrs, lipid conc. 0.004, dermatoxin mass 3.3 × 10^−9 mg, with phosphatase
  Absorbance at 538 nm (cytolytic peptide activity): 0.243 absorbance units
18 hrs, lipid conc. 0.004, dermatoxin mass 3.3 × 10^−9 mg, without phosphatase
  Absorbance at 538 nm (cytolytic peptide activity): 0.139 absorbance units
18 hrs, lipid conc. 0.02, dermatoxin mass 3.3 × 10^−5 mg, with phosphatase
  Absorbance at 538 nm (cytolytic peptide activity): 2.003 absorbance units
18 hrs, lipid conc. 0.02, dermatoxin mass 3.3 × 10^−5 mg, without phosphatase
  Absorbance at 538 nm (cytolytic peptide activity): 1.833 absorbance units
18 hrs, lipid conc. 0.02, dermatoxin mass 3.3 × 10^−6 mg, with phosphatase
  Absorbance at 538 nm (cytolytic peptide activity): 1.856 absorbance units
18 hrs, lipid conc. 0.02, dermatoxin mass 3.3 × 10^−6 mg, without phosphatase
  Absorbance at 538 nm (cytolytic peptide activity): 1.013 absorbance units
18 hrs, lipid conc. 0.02, dermatoxin mass 3.3 × 10^−7 mg, with phosphatase
  Absorbance at 538 nm (cytolytic peptide activity): 0.469 absorbance units
18 hrs, lipid conc. 0.02, dermatoxin mass 3.3 × 10^−7 mg, without phosphatase
  Absorbance at 538 nm (cytolytic peptide activity): 0.315 absorbance units
18 hrs, lipid conc. 0.02, dermatoxin mass 3.3 × 10^−8 mg, with phosphatase
  Absorbance at 538 nm (cytolytic peptide activity): 0.357 absorbance units
18 hrs, lipid conc. 0.02, dermatoxin mass 3.3 × 10^−8 mg, without phosphatase
  Absorbance at 538 nm (cytolytic peptide activity): 0.149 absorbance units
18 hrs, lipid conc. 0.02, dermatoxin mass 3.3 × 10^−9 mg, with phosphatase
  Absorbance at 538 nm (cytolytic peptide activity): 0.336 absorbance units
18 hrs, lipid conc. 0.02, dermatoxin mass 3.3 × 10^−9 mg, without phosphatase
  Absorbance at 538 nm (cytolytic peptide activity): 0.143 absorbance units
18 hrs, lipid conc. 0.1, dermatoxin mass 3.3 × 10^−5 mg, without phosphatase
  Absorbance at 538 nm (cytolytic peptide activity): 3.720 absorbance units
18 hrs, lipid conc. 0.1, dermatoxin mass 3.3 × 10^−6 mg, without phosphatase
  Absorbance at 538 nm (cytolytic peptide activity): 3.294 absorbance units
18 hrs, lipid conc. 0.1, dermatoxin mass 3.3 × 10^−7 mg, with phosphatase
  Absorbance at 538 nm (cytolytic peptide activity): 0.530 absorbance units
18 hrs, lipid conc. 0.1, dermatoxin mass 3.3 × 10^−7 mg, without phosphatase
  Absorbance at 538 nm (cytolytic peptide activity): 0.974 absorbance units
18 hrs, lipid conc. 0.1, dermatoxin mass 3.3 × 10^−8 mg, with phosphatase
  Absorbance at 538 nm (cytolytic peptide activity): 0.349 absorbance units
18 hrs, lipid conc. 0.1, dermatoxin mass 3.3 × 10^−8 mg, without phosphatase
  Absorbance at 538 nm (cytolytic peptide activity): 0.200 absorbance units
18 hrs, lipid conc. 0.1, dermatoxin mass 3.3 × 10^−9 mg, with phosphatase
  Absorbance at 538 nm (cytolytic peptide activity): 0.358 absorbance units
18 hrs, lipid conc. 0.1, dermatoxin mass 3.3 × 10^−9 mg, without phosphatase
  Absorbance at 538 nm (cytolytic peptide activity): 0.177 absorbance units
All wells except the highest concentration of the crude preparation
  Permeabilization of the liposomes in the presence versus absence of phosphatase: more permeabilization
